# Measurements as given in a melting point compilation (Tetko et al.; mined from patent text by program, amines drawn as free bases though some values may be those of a salt).
row,melting point [°C],Structure (SMILES)
1,147 to 150,Cc1cc(-c2nnn(C)n2)cc(C)c1OCCCCc1cc2cccnc2[nH]1
2,226 to 231,O=C(Nc1ccc2oc(=O)[nH]c2c1)C(=O)N1CCC(Cc2ccc(F)cc2)CC1
3,75 to 77,c1cncc(-c2ccsc2)c1
4,87 to 90,c1cc2c(c(-c3nc4ncccc4o3)c1)CCCC2
5,91.9,Nc1cc(C(=O)c2ccccc2)ccc1Cl
6,51 to 53,CC1(C)CC=C(S(=O)(=O)c2ccccc2)CC1
7,113,CC(COc1c(-c2ccccc2)c(=O)oc2ccccc12)CN1CCOCC1 (stereo not drawn)
8,160 to 162,O=S(=O)(Nc1ccccc1)c1ccc(NC(=S)Nc2ccccc2)cc1
9,132,CSc1nc2ccccc2n2cc(-c3ccccc3)cc12
10,123 to 126,CCCSc1csc(C(=O)O)c1S(=O)(=O)NC(C)(C)C
11,183 to 185,COc1ccc(C2CCN(c3c(C)c(C)c4c(c3C)[C@@H](c3ccc(C)cc3)C(C)(C)O4)CC2)cc1
12,136,O=S(=O)(Nc1ccccc1O)c1ccc2ccccc2c1
13,101 to 103,Cc1cccc(OC(=O)C(=O)Oc2cccc(C)c2)c1
14,148 to 149,COc1ccc2cc(S(N)(=O)=O)oc2c1
15,138 to 146,COC(=O)Oc1cc(N2C(=O)C3=C(CCCC3)C2=O)c(F)cc1Cl
16,136 to 137,Nc1sc(CC(O)CO)cc1C(=O)c1ccccc1Cl (stereo not drawn)
17,247 to 249,Brc1cccc(-c2cc3nccnc3[nH]2)c1
18,128 to 130,CONC(=O)Nc1ccc(-c2sc3c(c2CN(C)C(C)c2ccccc2)c(=O)n(-c2ccc(F)cn2)c(=O)n3Cc2c(F)cccc2F)cc1 (stereo not drawn)
19,138 to 140,CC(c1ccsc1)N(O)C(N)=O (stereo not drawn)
20,116,COc1ccc(N=C(Cl)c2ccc(OC)cc2)cc1
21,89 to 92,COCCOc1c(S(C)(=O)=O)ccc(C(=O)O)c1Cl
22,251 to 254,CC(=O)Nc1cccc(C2=CCNc3c(C#N)cnn32)c1
23,92 to 95,CC(C)CCCC(C)C1CCC2C3CC=C4CC(OCCO)CCC4(C)C3CCC12C (stereo not drawn)
24,144 to 145,CC(C)(C)COc1c(-c2ccc(S(N)(=O)=O)c(F)c2)cnn(CC(F)(F)F)c1=O
25,77,O=C(NO)[C@H](CNS(=O)(=O)c1ccc(OCCc2ccccc2)cc1)N1CCOCC1

row,melting point [°C],Structure (SMILES)
1,272 to 274,COc1ccc(OC)c(C2=Nc3ccc(N4CCCC4)cc3C(=O)C2)c1
2,81 to 82,CC(=O)OCC(C(OC(C)=O)c1ccc(Br)cc1)[N+](=O)[O-] (stereo not drawn)
3,80,Cc1cc(CN(Cc2ccco2)c2sc(-c3ccc(C(F)(F)F)cc3)nc2C)ccc1OC(C)(C)C(=O)O
4,103 to 105,CCCCc1nc2cc(-c3ccccc3)cc(C(=O)OC)c2n1Cc1ccccc1Cl
5,110 to 112,CCNC(=O)n1nc(Oc2ccc([N+](=O)[O-])c(OCC)c2)cc1C
6,205,Nc1c2c(nc3cccc(Cl)c13)C(=O)CCC2
7,207 to 210,Nc1cc(-c2ccncc2)cc2nc(-c3ccccc3)nn12
8,156 to 157,NNc1cc(-c2ccccc2)c2cc(Cl)ccc2n1
9,191 to 194,CS(=O)(=O)CCCn1cc(C(Cc2ccccc2Br)=NO)c2ccc(Cl)c(Cl)c21
10,188 to 192,COC(=O)c1ccc(-c2ccc(Br)c3nsnc23)cc1
11,108 to 110,CCn1c2ccccc2c2c(N)c(C(=O)OC)c(C)nc21
12,215,Nc1c(Nc2cccc3cnccc23)c(=O)c1=O
13,108 to 111,c1ccc(C2=Nc3ccccc3OC2)cc1
14,194 to 196,Clc1nc(Nc2ccccc2)c2ccccc2n1
15,142 to 143,CC1(C)N[C@H](Cc2ccc(Br)cc2)[C@@H]2C(=O)N(Cc3ccccc3)C(=O)[C@@H]21 (racemic)
16,188 to 190,CC(=O)NC[C@H]1CN(c2ccc(N3CCC4(CC3)CC4(C#N)C#N)c(F)c2)C(=O)O1
17,206 to 211,CC(C)NC(=O)C(Cc1ccccc1)NC(=O)Nc1n[nH]c(=S)s1 (stereo not drawn)
18,120 to 121,COc1ccc2c(c1)C(C)(CC(=O)O)C(=O)N2C (stereo not drawn)
19,204 to 205,COC(=O)COc1ccc(C(=O)Nc2ccccc2Sc2ccccc2-c2nnn[nH]2)cc1
20,53 to 56,NC(=O)c1cccc(OCCCCC/C=C\c2ccc(Cl)o2)c1
21,246 to 247,N#Cc1cccc(Cn2cnc(C(N)=O)c2N)c1
22,61 to 62,COc1cccc2c(CCBr)coc12
23,61 to 62,C=C(Cc1ccccc1)C(=O)O
24,139,CN(Cc1cc(C(C)(C)C)c(O)c(C(C)(C)C)c1)n1ccnc1
25,118 to 120,COc1ccc(NC(=O)CCCC(O)c2ccc(OC)cc2)cc1 (stereo not drawn)

row,melting point [°C],Structure (SMILES)
1,184 to 191,N#Cc1cnc(N)nc1-c1ccc(Cl)cc1C1(c2ccccc2F)OCC(CCl)O1 (stereo not drawn)
2,131 to 134,CC(=O)Oc1ccccc1-c1ccc(Cl)nn1
3,198 to 201,CCOC(=O)C1=Cc2c3c(c(C(=O)OCC)cc2=N1)=Nc1cnccc1-3
4,120 to 121,O=C1NCC(Cc2ccc(F)cc2)O1 (stereo not drawn)
5,110 to 111,Cc1ccc(-c2cc(Cl)c3ccc(C)cc3n2)cc1
6,> 270,CCn1c(=O)c2[nH]c(/C=C/c3ccc(OC)c(C)c3)nc2n(CC)c1=O
7,142 to 144,CCCc1c(OCCCOc2ccc(C(=O)CCC(=O)O)cc2F)ccc(C(C)=O)c1O
8,110 to 111,CCOC(=O)C1=C(CO)NC(C(F)(F)F)=C(C(=O)OCC)C1c1cccc2nonc12 (stereo not drawn)
9,> 250,O=[N+]([O-])c1ccc2c(c1)Sc1cc(I)ccc1N2
10,79 to 80,COc1ccccc1Oc1c(Cl)ncnc1Cl
11,65 to 66,CC(=O)c1cccc2cc[nH]c12
12,207 to 210,Cc1nc(C(=O)NC23CC4CC(CC(C4)C2)C3)cn1-c1ccccc1
13,119 to 127,Cc1c(Br)cc(NC(=O)c2cccc(CSc3cnccn3)c2)cc1Br
14,274 to 276,NS(=O)(=O)c1cc2c(cc1Cl)NC(C1CCCCC1)NS2(=O)=O (stereo not drawn)
15,190 to 192,Cc1ncn(-c2ccc(N3C[C@H](CO)OC3=O)cc2F)n1
16,89.5 to 91,CC(C)(C)C1=CC=CC(c2ccccc2Cl)(C(C)(C)C)C1O (stereo not drawn)
17,93,CCOC(=O)c1sc(Br)c2c1OCO2
18,122 to 124,CC(C)c1cccc(F)c1NC(=S)NN
19,96 to 98,CC(C)(C)OC(=O)CN(C(=O)CNC(=O)Nc1cccc(CC(=O)O)c1)c1ccccc1C(=O)c1ccccc1
20,271 to 273,c1ccc2c(c1)ccc1c(-c3ccncc3)[nH]nc12
21,136 to 139,CC(C)c1cc(C(=O)CON2C(=O)c3ccccc3C2=O)cc(C(C)C)c1O
22,104 to 106,NCC(O)(CCc1ccccc1)CCc1ccccc1
23,253 to 255,NS(=O)(=O)c1ccc(-c2cnn(Cc3ccc(F)c(F)c3)c(=O)c2-c2ccc(F)cc2)cc1
24,202 to 203,COc1ccc2c(c1)Sc1c(cc(OC)c(OC(=O)c3ccccc3)c1Br)N2
25,72 to 75,N#CCCCCc1cccc2cncn12

row,melting point [°C],Structure (SMILES)
1,103 to 108,CNC(=O)C(=NOC)c1ccccc1COc1ccc(Cl)c(C(=O)OC(C)(C)C)n1
2,274 to 275,CC1=N/C(=C\c2c[nH]c3ncccc23)C(=O)N1Cc1ccccc1
3,82,Cc1ccc(C=C2CCN(C(=O)c3nc4ccc(O)cc4[nH]3)CC2)cc1
4,51,COC1COC(c2ccccc2)OC1 (stereo not drawn)
5,134,Cc1ccc(S(=O)(=O)N2CCCC2c2ccc(F)cc2)cc1Cl (racemic)
6,180,CCCCc1nn(Cc2ccc(C#N)cc2)c2ccccc2c1=O
7,56 to 60,C#CCOCC1CCC(COCC#C)CC1 (stereo not drawn)
8,181 to 182,COC(CNC1=Nc2ccccc2Nc2ccccc21)OC
9,125 to 128,Nc1ccc(OCc2nc3cc(F)ccc3s2)cc1
10,175 to 177,COCC1COc2cc3ncnc(Nc4cccc(I)c4)c3cc2O1 (stereo not drawn)
11,134 to 137,Cc1nc2ccc3c(c2o1)C(CCNC(=O)C1CC1)CC3 (stereo not drawn)
12,155,Nc1nc2ccc(SC(F)(F)F)cc2s1
13,258,O=C1c2ccccc2C(=O)c2sc(-c3ccc(Cl)o3)nc21
14,329,NS(=O)(=O)c1cc(NC(=O)c2cnn3c(C(F)(F)F)cc(-c4ccc(Cl)cc4)nc23)c(Cl)s1
15,144 to 145,CC(C)c1cc(C(C)C)cc(N(Cc2cccc(NC(=N)c3cccs3)c2)C(=O)CCc2cc(C(C)C)c(O)c(C(C)C)c2)c1
16,200 to 202,CC1(C)C(=O)Nc2ccc(-c3cccc(C#N)c3)cc21
17,269,O=C1c2ccc(NC(=O)C3CCCCC3)cc2C(=O)c2cc(NC(=O)C3CCCCC3)ccc21
18,77 to 79,Cc1cc(C2OCCO2)ncc1[N+](=O)[O-]
19,151,COCn1c(C(O)(c2ccc(Cl)cc2)c2ccc(Cl)cc2)nc(C)c1C
20,154 to 156,O=C(CSc1ccc(Cl)cc1C(=O)O)c1ccccc1
21,220,Cc1cc(C)cc(Nc2ccc(Nc3ccccc3)c3c2C(=O)c2ccccc2C3=O)c1
22,178 to 179,CC(=O)NCC(O)(Cn1cncn1)c1ccc(Cl)cc1Cl (stereo not drawn)
23,73 to 75,C[C@@H](S[C@H]1CO[C@H](/C=C/c2ccc(C(F)(F)F)cc2)OC1)[C@](O)(Cn1cncn1)c1ccc(F)cc1F
24,192 to 193,O=C1Nc2cccnc2N(C(=O)NCCN2CCC(CCCN3CCCCC3)CC2)c2ccccc21
25,221,CC(SC1COC(c2ccc(C(=O)Nc3ccc(Br)cc3)cc2)OC1)C(O)(Cn1cncn1)c1ccc(F)cc1F (stereo not drawn)

row,Structure (SMILES),melting point [°C]
1,Cc1ccc(-c2cc(C(=O)O)nn2Cc2ccc(Cl)c(Cl)c2)cc1,172
2,N#CC(C#N)=Cc1ccc(C=O)cc1,142
3,O=[N+]([O-])c1cc(C2=NOC(c3cc(C(F)(F)F)cc(C(F)(F)F)c3)(C(F)(F)F)C2)ccc1-n1cnnn1 (stereo not drawn),173 to 175
